# Earlier results in patent US12410474B2, “Methods, kits, and devices for diagnosing, prognosing, and treating psychiatric disorders in a patient” (Northwestern University, priority 2014, dated 2025).
# Legend:
# [1] = tested on: HTR2C Ser23 and Cys23 isoreceptors; conditions: after prolonged pre-exposure to serotonin
# [2] = biological target: T1, HTR2C (Homo sapiens, UniProt P28335)
# T1 sequence (P28335 33-458): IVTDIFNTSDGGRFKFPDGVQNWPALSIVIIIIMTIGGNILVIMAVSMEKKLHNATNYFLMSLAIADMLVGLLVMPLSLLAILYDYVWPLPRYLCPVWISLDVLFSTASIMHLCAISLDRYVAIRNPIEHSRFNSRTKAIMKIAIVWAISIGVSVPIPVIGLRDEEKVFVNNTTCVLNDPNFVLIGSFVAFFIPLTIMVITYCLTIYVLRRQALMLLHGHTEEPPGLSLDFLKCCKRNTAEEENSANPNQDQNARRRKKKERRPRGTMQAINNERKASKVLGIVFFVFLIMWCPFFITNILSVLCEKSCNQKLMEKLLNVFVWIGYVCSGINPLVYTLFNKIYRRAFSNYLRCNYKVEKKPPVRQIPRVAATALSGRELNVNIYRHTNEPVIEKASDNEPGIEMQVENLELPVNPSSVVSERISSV
# [3] = biological target: HTR2A (Homo sapiens, UniProt P28223)
# Sequence of HTR2A (P28223 whole entry): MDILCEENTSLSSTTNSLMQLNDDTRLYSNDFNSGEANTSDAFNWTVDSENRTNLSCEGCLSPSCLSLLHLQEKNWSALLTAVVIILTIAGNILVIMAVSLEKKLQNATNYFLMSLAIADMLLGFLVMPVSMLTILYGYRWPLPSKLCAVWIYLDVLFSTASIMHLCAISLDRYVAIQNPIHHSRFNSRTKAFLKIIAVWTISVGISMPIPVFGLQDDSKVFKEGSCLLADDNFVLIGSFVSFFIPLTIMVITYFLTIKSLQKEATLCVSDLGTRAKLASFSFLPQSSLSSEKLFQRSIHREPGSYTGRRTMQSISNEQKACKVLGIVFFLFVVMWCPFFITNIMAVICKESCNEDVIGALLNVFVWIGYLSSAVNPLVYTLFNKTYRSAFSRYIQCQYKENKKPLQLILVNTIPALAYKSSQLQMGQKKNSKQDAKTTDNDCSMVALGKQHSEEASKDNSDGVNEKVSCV
Compound,functional activity at HTR2C [2],other results
Cn1ccc2cc3c(cc21)CCN3C(=O)Nc1cccnc1 [SB206553],–,cell surface expression in Ser-receptors versus Cys-receptors [1]: greater cell surface expression; resensitization in Ser-receptors versus Cys-receptors [1]: more rapid resensitization
CN(C)CCCN1c2ccccc2Sc2ccc(Cl)cc21 [chlorpromazine],neutral antagonists,–
Cc1nc2n(c(=O)c1CCN1CCC(c3noc4cc(F)ccc34)CC1)CCCC2 [risperidone],potent inverse agonists,–
O=C1NCCN1CCN1CCC(c2cn(-c3ccc(F)cc3)c3ccc(Cl)cc23)CC1 [sertindole],potent inverse agonists,functional activity at HTR2A [3]: potent inverse agonists

# Further lines, with some results ahead:
functional activity at HTR2C [2],Compound,other results
neutral antagonists,O=C(CCCN1CCC2(CC1)C(=O)NCN2c1ccccc1)c1ccc(F)cc1 [spiperone],–
neutral antagonists,CSc1ccc2c(c1)N(CCC1CCCCN1C)c1ccccc1S2 (stereo not drawn) [thioridazine],–
neutral antagonists,CN1CCN(CC/C=C2/c3ccccc3Sc3ccc(S(=O)(=O)N(C)C)cc32)CC1 [thiothixene],–
